# Read-outs that look alike come from different tables or passages of the source.
# Tests used:
# OBP14 [1] = target: T1, OBP14 (Apis mellifera, UniProt A0A8U0WQC3); assay: biochemical; format: binding, honeybees; details: for binding to OBP14 (in words): qualitative ranking from biosensor results; for kon: read-out: [kon] / M^-1s^-1
# OBP14 [2] = target: T1, OBP14; details: fluorescent displacement assays, literature; cited from earlier work
# [3] = 10^- 6[KD] /M, Table 1, KD = 1/KA from titration, Langmuir model, 1mM PBS, pH = 8.0
# [4] = KD, from Langmuir isotherm plot, half saturation concentration (50% surface coverage)
# [5] = KD, from the kinetic measurement (titration fitted with Langmuir model)
# [6] = Table 1, affinity constant KA = kon/koff from titration, Langmuir model, 1mM PBS, pH = 8.0
# [7] = 10^2 [KA] /M^-1, Table 2, affinity constant KA = kon/koff from titration, Langmuir model fit
# [8] = 10^-6 [KD] /M, Table 2, KD = 1/KA from titration, Langmuir model fit
# [9] = Table 2, affinity constant KA = kon/koff from titration, Langmuir model fit
# [10] = dissociation constant of KD, control experiment, eugenol and methyl eugenol on the same sensor device
# [11] = Table 2, association rate constant from titration fit
# [12] = Table 2, dissociation rate constant from final buffer wash fit, read-out: [ koff] / s^-1
# T1 sequence (A0A8U0WQC3 entry or part of it): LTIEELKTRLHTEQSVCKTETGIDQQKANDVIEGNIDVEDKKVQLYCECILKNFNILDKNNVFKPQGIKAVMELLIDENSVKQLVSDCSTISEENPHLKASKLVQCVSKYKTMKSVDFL
structure (smiles),measurement,setting,value
"CC(C)=CCCC(C)=CC=O (mixture of isomers) [Citral, (2E)-3,7-dimethylocta-2,6-dienal]",Kd,OBP14 [1]; [3],589.2 ± 0.6 µM
same,Kd,OBP14 [1]; [4],550 µM
same,Kd,OBP14 [1]; [5],590 µM
same,10^2 [KA] /M^-1,OBP14 [1]; [6],16.97 ± 0.02 10^2 M^-1
same,binding to OBP14 (in words),OBP14 [1],moderate or weak binders
same,koff,OBP14 [1]; read-out: [koff] /s ^-1,0.0035 s⁻¹
"COc1cc(/C=C/C=O)ccc1O [Coniferyl aldehyde, (E)-3-(4-hydroxy-3-methoxyphenyl) prop-2-enal]",Kd,OBP14 [1]; [7],8.06 µM
same,Kd,OBP14 [1]; [8],9.1 ± 2.3 µM
same,koff,OBP14 [1]; read-out: [ koff] / s^-1,0.003 s⁻¹
same,kon,OBP14 [1],370 ± 190 M⁻¹ s⁻¹
same,affinity to OBP14 (in words),OBP14 [2],did not show good affinity
"C=CCc1ccc(O)c(OC)c1 [Eugenol, 4-Allyl-2-methoxyphenol]",koff,OBP14 [1],0.003 s⁻¹
same,real-time response (ΔIDS) of the biosensor,"OBP14 [1]; 5 µM eugenol solution compared with a 10 fold higher concentrated methyl eugenol solution, same sensor device",significantly higher
same,Kd,OBP14 [1]; [3],9.2 ± 0.7 µM
same,Kd,OBP14 [1]; [8],9.2 ± 0.7 µM
same,Kd,OBP14 [1]; [4],1.9 µM
same,Kd,OBP14 [1]; [5],9.2 µM
same,10^2 [KA] /M^-1,OBP14 [1]; [6],1087 ± 91 10^2 M^-1
same,10^2 [KA] /M^-1,OBP14 [1]; [9],1087 ± 91 10^2 M^-1
same,Kd,OBP14 [1]; [10],19 µM
same,binding to OBP14 (in words),OBP14 [1],high affinity
same,koff,OBP14 [1]; read-out: [ koff] / s^-1,0.003 s⁻¹
same,koff,OBP14 [1]; read-out: [koff] /s ^-1,0.003 s⁻¹
same,kon,OBP14 [1],326 ± 27 M⁻¹ s⁻¹
"CC(C)=CCC/C(C)=C/CO [Geraniol, (2E)-3,7-Dimethylocta-2,6-dien-1-ol]",Kd,OBP14 [1]; [3],1120 ± 5 µM
same,10^2 [KA] /M^-1,OBP14 [1]; [6],8.96 ± 0.04 10^2 M^-1
same,binding to OBP14 (in words),OBP14 [1],moderate or weak binders
same,koff,OBP14 [1]; read-out: [koff] /s ^-1,0.0077 s⁻¹
"COc1cc(CC(=O)O)ccc1O [Homovanillic acid, 2-(4-Hydroxy-3-methoxy-phenyl)acetic acid]",Kd,OBP14 [1]; [3],6.5 ± 0.7 µM
same,10^2 [KA] /M^-1,OBP14 [1]; [6],1540 ± 140 10^2 M^-1
same,koff,OBP14 [1]; read-out: [koff] /s ^-1,0.0078 s⁻¹
same,affinity to OBP14 (in words),OBP14 [2],did not show good affinity
"CC(=O)OCCC(C)C [Isoamyl acetate, 3-methylbutyl acetate]",Kd,"OBP14 [1]; Table 1, KD = 1/KA from titration, Langmuir model, 1mM PBS, pH = 8.0, read-out: 10^- 6[KD] /M",814 ± 58 µM
same,10^2 [KA] /M^-1,OBP14 [1]; [6],12.33 ± 0.86 10^2 M^-1
same,[kon] /M^1s^-1,"OBP14 [1]; Table 1, association rate constant from titration fit",8.3 ± 0.6 M^1s^-1
same,koff,"OBP14 [1]; Table 1, dissociation rate constant from final buffer wash fit, read-out: [koff] /s ^-1",0.0068 s⁻¹
same,binding to OBP14 (in words),OBP14 [1],behave poorly
"C=CCc1ccc(OC)c(OC)c1 [Methyl eugenol, 1,2-Dimethoxy-4-prop-2-enylbenzene]",Kd,OBP14 [1]; [8],520 ± 0.1 µM
same,10^2 [KA] /M^-1,OBP14 [1]; [9],19.23 ± 0.03 10^2 M^-1
same,kon,OBP14 [1]; [11],8.92 ± 0.01 M⁻¹ s⁻¹
same,koff,OBP14 [1]; [12],0.0046 s⁻¹
same,Kd,OBP14 [1]; [10],590 µM
same,"concentration at which equilibrium was achieved, relative to the other odorants","OBP14 [1]; titration curves Fig. 3, compared with three ligands with phenolic based structure",about 10 fold
"COC(=O)c1ccc(O)c(OC)c1 [Methyl vanillate, Methyl 4-hydroxy-3-methoxybenzoate]",Kd,"OBP14 [1]; Table 2, KD = 1/KA from titration, Langmuir model fit, read-out: 10^-6 [KD] /M",22 ± 4.5 µM
same,10^2 [KA] /M^-1,OBP14 [1]; [9],479 ± 136 10^2 M^-1
same,kon,OBP14 [1]; [11],239 ± 68 M⁻¹ s⁻¹
same,koff,OBP14 [1]; [12],0.005 s⁻¹
same,Kd,"OBP14 [1]; from Langmuir isotherm of change in drain current ΔIDS vs odorant concentration [Od] (Fig. 1D), read-out: KD",10 µM
same,Kd,"OBP14 [1]; from Langmuir isotherm plot, half saturation concentration (50% surface coverage), read-out: KD",24 µM
same,Kd,"OBP14 [1]; from linear relationship between reaction rate constant k and odorant concentration (Fig. 1B), read-out: KD",30 µM
same,Kd,"OBP14 [1]; from the kinetic measurement (titration fitted with Langmuir model), read-out: KD",22 µM
"CC(=O)CCC=C(C)C [Sulcatone, 6-Methylhept-5-en-2-one]",Kd,OBP14 [1]; [3],1410 ± 21 µM
same,Kd,OBP14 [1]; [4],1500 µM
same,Kd,OBP14 [1]; [5],1400 µM
same,10^2 [KA] /M^-1,OBP14 [1]; [6],7.07 ± 0.11 10^2 M^-1
same,binding to OBP14 (in words),OBP14 [1],behave poorly
same,koff,OBP14 [1]; read-out: [koff] /s ^-1,0.0074 s⁻¹
"COc1cc(C=O)ccc1O [Vanillin, 4-Hydroxy-3-methoxybenzaldehyd]",Kd,OBP14 [1]; [7],20.7 µM
same,Kd,OBP14 [1]; [8],23.8 ± 6 µM
same,kon,OBP14 [1]; [11],191 ± 111 M⁻¹ s⁻¹
same,koff,OBP14 [1]; [12],0.0038 s⁻¹
"COc1cc(CCC(C)=O)ccc1O [Vanillyl acetone, 4-(4-hydroxy-3-methoxyphenyl)butan-2-one]",10^2 [KA] /M^-1,OBP14 [1]; [9],409.7 ± 0.3 10^2 M^-1
same,Kd,OBP14 [1]; read-out: 10^-6 [KD] /M,24.4 ± 0.02 µM
same,koff,OBP14 [1]; read-out: [ koff] / s^-1,0.007 s⁻¹
same,kon,OBP14 [1],286.8 ± 0.2 M⁻¹ s⁻¹
